{"source": "ChEMBL document CHEMBL4507299", "about": "“Data for DCP probe PF-04554878” (2021)", "key": {"[1]": {"molecular_target": "BMP-2-inducible protein kinase (Homo sapiens) (UniProt Q9NSY1)"}, "[2]": {"molecular_target": "Peripheral plasma membrane protein CASK (Homo sapiens) (UniProt O14936)", "sequence (O14936 whole entry)": "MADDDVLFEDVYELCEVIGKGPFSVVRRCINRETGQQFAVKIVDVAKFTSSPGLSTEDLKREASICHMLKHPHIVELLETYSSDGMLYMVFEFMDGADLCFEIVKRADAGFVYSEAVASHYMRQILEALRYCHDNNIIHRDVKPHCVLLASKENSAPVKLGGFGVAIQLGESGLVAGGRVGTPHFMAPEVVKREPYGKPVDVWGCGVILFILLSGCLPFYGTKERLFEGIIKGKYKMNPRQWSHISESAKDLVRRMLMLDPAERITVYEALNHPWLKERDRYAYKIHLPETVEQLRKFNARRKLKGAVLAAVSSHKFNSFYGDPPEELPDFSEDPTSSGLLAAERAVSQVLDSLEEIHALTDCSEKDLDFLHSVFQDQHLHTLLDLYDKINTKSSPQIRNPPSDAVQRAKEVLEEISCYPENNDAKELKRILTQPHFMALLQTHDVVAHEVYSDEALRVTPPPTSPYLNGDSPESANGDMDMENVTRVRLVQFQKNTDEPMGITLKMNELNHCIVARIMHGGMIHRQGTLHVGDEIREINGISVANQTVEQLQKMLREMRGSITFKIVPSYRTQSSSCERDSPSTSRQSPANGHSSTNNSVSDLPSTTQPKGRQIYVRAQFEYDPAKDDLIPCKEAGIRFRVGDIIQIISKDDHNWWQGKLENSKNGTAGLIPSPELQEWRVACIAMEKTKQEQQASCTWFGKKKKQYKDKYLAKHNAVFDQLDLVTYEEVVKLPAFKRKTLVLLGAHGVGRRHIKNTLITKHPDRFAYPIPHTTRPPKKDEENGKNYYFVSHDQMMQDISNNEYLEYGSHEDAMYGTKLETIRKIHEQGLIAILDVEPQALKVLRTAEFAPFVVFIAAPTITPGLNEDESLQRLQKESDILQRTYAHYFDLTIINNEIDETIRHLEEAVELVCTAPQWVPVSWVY"}, "[3]": {"molecular_target": "Cyclin-dependent kinase 7 (Homo sapiens) (UniProt P50613)"}, "[4]": {"molecular_target": "T1, Serine/threonine-protein kinase Chk1 (Homo sapiens) (UniProt O14757)", "T1 sequence (whole entry)": "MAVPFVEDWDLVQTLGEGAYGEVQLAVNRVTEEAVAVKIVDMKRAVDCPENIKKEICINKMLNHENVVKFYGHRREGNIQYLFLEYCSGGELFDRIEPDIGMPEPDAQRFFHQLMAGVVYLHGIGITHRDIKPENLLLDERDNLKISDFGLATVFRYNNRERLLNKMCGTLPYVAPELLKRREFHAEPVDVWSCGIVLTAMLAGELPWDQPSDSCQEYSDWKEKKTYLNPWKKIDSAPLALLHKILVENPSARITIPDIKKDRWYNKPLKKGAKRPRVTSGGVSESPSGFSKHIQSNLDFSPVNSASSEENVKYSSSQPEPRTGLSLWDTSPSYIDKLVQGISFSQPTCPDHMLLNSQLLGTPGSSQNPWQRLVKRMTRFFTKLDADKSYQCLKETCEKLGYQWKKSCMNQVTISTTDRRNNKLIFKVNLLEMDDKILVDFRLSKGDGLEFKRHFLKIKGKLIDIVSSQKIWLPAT"}, "[5]": {"molecular_target": "Megakaryocyte-associated tyrosine-protein kinase (Homo sapiens) (UniProt P42679)"}, "[6]": {"molecular_target": "Serine/threonine-protein kinase 17A (Homo sapiens) (UniProt Q9UEE5)"}, "[7]": {"molecular_target": "Dual specificity tyrosine-phosphorylation-regulated kinase 2 (Homo sapiens) (UniProt Q92630)"}, "[8]": {"tested_on": "Epidermal growth factor receptor (Homo sapiens), P00533 [G719C]"}, "[9]": {"molecular_target": "Fibroblast growth factor receptor 2 (Homo sapiens) (UniProt P21802)"}, "[10]": {"molecular_target": "Rhodopsin kinase GRK1 (Homo sapiens) (UniProt Q15835)"}, "[11]": {"molecular_target": "G protein-coupled receptor kinase 3 (Homo sapiens) (UniProt P35626)", "sequence (P35626 whole entry)": "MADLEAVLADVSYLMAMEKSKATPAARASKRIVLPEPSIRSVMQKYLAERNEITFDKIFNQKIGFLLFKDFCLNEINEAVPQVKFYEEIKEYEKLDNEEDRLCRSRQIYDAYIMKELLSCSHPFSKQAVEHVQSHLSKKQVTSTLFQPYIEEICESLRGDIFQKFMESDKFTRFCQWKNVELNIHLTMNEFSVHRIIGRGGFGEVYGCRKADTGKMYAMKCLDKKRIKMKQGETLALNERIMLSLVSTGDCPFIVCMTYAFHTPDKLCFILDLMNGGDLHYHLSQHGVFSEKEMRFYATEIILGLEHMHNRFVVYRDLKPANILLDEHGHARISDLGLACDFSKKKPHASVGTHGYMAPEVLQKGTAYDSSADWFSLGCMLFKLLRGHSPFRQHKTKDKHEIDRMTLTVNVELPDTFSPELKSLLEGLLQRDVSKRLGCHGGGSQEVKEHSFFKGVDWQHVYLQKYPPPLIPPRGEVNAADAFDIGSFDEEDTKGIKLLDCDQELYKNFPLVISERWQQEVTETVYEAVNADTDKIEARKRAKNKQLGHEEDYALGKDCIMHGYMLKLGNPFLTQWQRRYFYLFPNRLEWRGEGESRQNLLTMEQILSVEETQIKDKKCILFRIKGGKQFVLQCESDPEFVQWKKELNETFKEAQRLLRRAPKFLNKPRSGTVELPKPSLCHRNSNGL"}, "[12]": {"molecular_target": "Rhodopsin kinase GRK7 (Homo sapiens) (UniProt Q8WTQ7)", "sequence (Q8WTQ7 whole entry)": "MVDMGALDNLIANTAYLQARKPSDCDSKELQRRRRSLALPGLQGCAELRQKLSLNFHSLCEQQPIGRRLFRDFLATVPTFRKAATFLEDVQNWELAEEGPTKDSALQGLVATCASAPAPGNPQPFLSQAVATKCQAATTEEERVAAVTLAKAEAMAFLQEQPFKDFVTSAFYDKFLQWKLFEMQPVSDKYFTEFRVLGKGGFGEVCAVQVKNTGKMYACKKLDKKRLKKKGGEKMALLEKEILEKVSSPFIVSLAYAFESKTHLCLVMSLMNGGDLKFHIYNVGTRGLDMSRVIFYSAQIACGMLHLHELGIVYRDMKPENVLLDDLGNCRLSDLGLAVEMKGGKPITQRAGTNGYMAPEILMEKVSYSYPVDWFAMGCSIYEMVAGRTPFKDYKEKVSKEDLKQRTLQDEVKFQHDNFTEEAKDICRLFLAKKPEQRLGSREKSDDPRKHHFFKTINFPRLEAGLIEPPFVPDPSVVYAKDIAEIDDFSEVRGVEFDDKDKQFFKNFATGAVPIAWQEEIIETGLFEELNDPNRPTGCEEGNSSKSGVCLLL"}, "[13]": {"molecular_target": "Mitogen-activated protein kinase 8 (Homo sapiens) (UniProt P45983)"}, "[14]": {"molecular_target": "Mast/stem cell growth factor receptor Kit (Homo sapiens) (UniProt P10721)"}, "[15]": {"molecular_target": "MAP kinase-activated protein kinase 2 (Homo sapiens) (UniProt P49137)"}, "[16]": {"molecular_target": "Serine/threonine-protein kinase 38-like (Homo sapiens) (UniProt Q9Y2H1)"}, "[17]": {"molecular_target": "Mitogen-activated protein kinase 12 (Homo sapiens) (UniProt P53778)", "sequence (P53778 whole entry)": "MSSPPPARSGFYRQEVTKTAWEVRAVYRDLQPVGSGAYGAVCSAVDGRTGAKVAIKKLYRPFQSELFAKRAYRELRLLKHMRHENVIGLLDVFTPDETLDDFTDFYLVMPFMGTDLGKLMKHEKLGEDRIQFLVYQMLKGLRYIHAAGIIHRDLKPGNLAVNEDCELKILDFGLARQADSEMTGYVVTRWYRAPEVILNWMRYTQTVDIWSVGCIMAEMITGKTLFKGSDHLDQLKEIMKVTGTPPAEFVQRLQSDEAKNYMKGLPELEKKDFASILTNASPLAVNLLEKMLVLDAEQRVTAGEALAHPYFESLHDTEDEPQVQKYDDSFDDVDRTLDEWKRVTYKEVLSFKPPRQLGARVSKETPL"}, "[18]": {"molecular_target": "3-phosphoinositide-dependent protein kinase 1 (Homo sapiens) (UniProt O15530)"}, "[19]": {"molecular_target": "Protein kinase C iota type (Homo sapiens) (UniProt P41743)"}, "[20]": {"molecular_target": "Serine/threonine-protein kinase D2 (Homo sapiens) (UniProt Q9BZL6)"}, "[21]": {"molecular_target": "Proto-oncogene tyrosine-protein kinase ROS (Homo sapiens) (UniProt P08922)"}, "[22]": {"molecular_target": "Ribosomal protein S6 kinase alpha-6 (Homo sapiens) (UniProt Q9UK32)", "sequence (Q9UK32 whole entry)": "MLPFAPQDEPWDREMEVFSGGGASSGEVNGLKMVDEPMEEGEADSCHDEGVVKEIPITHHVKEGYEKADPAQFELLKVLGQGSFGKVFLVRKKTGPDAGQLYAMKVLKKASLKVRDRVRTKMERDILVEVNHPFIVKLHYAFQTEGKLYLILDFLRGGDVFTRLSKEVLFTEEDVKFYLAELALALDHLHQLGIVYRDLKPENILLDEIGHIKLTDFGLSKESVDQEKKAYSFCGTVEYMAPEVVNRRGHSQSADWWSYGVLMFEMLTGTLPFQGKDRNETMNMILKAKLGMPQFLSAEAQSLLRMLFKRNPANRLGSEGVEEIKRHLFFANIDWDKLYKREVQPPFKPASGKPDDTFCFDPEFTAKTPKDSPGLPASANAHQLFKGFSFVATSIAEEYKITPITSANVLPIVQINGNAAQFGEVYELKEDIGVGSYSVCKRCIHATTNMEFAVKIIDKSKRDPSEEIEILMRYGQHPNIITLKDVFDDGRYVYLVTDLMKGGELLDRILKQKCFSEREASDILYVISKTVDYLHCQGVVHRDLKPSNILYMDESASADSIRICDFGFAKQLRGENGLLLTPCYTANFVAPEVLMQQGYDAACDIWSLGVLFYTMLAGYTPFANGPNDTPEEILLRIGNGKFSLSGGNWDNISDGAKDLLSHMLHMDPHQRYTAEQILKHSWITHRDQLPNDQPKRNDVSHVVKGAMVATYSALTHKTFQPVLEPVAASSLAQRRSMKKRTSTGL"}, "[23]": {"molecular_target": "Serine/threonine-protein kinase SIK2 (Homo sapiens) (UniProt Q9H0K1)", "sequence (Q9H0K1 whole entry, looked up)": "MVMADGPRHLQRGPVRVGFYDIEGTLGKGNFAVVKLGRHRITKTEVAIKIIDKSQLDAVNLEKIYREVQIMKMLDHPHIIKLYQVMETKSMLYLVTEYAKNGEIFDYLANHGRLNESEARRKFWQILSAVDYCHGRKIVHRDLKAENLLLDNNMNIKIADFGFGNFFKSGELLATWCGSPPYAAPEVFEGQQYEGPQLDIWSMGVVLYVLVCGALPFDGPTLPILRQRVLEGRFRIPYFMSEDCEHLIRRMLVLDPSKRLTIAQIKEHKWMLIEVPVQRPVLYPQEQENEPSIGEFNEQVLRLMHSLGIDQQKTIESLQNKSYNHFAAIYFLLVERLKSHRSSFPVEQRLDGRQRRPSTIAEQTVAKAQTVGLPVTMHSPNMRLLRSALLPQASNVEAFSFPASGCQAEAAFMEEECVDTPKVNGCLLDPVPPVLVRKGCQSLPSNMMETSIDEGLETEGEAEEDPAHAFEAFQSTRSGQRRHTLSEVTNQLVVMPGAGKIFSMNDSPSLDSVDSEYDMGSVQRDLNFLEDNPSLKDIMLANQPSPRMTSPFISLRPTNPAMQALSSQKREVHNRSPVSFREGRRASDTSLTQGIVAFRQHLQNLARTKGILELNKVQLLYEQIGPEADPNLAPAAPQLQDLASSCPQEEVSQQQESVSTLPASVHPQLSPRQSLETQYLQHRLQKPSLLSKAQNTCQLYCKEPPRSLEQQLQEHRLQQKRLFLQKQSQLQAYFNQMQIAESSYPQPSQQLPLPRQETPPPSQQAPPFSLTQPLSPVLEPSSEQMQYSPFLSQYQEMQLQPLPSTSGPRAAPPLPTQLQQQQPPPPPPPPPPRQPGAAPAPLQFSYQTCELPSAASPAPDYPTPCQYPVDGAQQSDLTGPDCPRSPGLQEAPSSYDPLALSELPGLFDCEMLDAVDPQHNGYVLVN"}, "[24]": {"molecular_target": "Serine/threonine-protein kinase TNNI3K (Homo sapiens) (UniProt Q59H18)", "sequence (Q59H18 whole entry)": "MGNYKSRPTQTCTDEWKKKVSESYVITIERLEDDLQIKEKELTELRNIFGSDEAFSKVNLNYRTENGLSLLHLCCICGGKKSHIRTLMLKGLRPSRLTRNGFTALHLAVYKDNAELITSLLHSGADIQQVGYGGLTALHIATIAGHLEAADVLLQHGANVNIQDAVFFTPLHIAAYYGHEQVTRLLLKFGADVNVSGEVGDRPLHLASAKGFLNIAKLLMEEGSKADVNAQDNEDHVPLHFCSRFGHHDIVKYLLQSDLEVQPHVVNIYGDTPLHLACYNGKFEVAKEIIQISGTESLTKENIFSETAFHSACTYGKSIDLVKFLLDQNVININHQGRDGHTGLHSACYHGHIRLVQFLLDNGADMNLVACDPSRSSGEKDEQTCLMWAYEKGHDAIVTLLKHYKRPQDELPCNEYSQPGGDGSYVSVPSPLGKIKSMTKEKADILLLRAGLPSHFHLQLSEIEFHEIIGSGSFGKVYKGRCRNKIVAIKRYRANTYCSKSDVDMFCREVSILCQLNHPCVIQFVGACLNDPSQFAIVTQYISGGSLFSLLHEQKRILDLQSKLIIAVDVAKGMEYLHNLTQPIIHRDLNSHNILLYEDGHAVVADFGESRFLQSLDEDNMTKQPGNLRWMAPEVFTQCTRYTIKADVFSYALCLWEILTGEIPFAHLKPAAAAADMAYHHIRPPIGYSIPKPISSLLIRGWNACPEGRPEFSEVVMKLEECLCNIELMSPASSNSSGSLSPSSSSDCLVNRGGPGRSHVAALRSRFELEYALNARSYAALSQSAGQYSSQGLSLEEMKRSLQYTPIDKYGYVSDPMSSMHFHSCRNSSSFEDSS"}, "[25]": {"molecular_target": "NT-3 growth factor receptor (Homo sapiens) (UniProt Q16288)"}, "[26]": {"molecular_target": "Serine/threonine-protein kinase 32A (Homo sapiens) (UniProt Q8WU08)"}, "[27]": {"molecular_target": "Tyrosine-protein kinase ZAP-70 (Homo sapiens) (UniProt P43403)"}, "[28]": {"molecular_target": "5-hydroxytryptamine receptor 2A (Homo sapiens) (UniProt P28223)", "settings": "Compound concentration 10.0 uM"}, "[29]": {"settings": "Compound concentration 100.0 nM"}, "[30]": {"settings": "Compound concentration 1000.0 nM"}}}
{"smiles": "CNC(=O)c1ccc(Nc2ncc(C(F)(F)F)c(NCc3nccnc3N(C)S(C)(=O)=O)n2)cc1", "note": "[DEFACTINIB]", "values": [{"measurement": "residual activity", "setting": "[1]; [29]", "value": 81, "unit": "%"}, {"measurement": "residual activity", "setting": "[2]; [29]", "value": 88, "unit": "%"}, {"measurement": "residual activity", "setting": "[3]; [29]", "value": 59, "unit": "%"}, {"measurement": "residual activity", "setting": "[4]; [29]", "value": 100, "unit": "%"}, {"measurement": "residual activity", "setting": "[5]; [29]", "value": 37, "unit": "%"}, {"measurement": "residual activity", "setting": "[6]; [29]", "value": 19, "unit": "%"}, {"measurement": "residual activity", "setting": "[7]; [29]", "value": 76, "unit": "%"}, {"measurement": "residual activity", "setting": "[8]; [29]", "value": 94, "unit": "%"}, {"measurement": "residual activity", "setting": "[9]; [29]", "value": 100, "unit": "%"}, {"measurement": "residual activity", "setting": "[10]; [29]", "value": 99, "unit": "%"}, {"measurement": "residual activity", "setting": "[11]; [29]", "value": 80, "unit": "%"}, {"measurement": "residual activity", "setting": "[12]; [29]", "value": 97, "unit": "%"}, {"measurement": "residual activity", "setting": "[13]; [29]", "value": 100, "unit": "%"}, {"measurement": "residual activity", "setting": "[14]; [29]", "value": 100, "unit": "%"}, {"measurement": "residual activity", "setting": "[15]; [29]", "value": 100, "unit": "%"}, {"measurement": "residual activity", "setting": "[16]; [29]", "value": 73, "unit": "%"}, {"measurement": "residual activity", "setting": "[17]; [29]", "value": 67, "unit": "%"}, {"measurement": "residual activity", "setting": "[18]; [29]", "value": 81, "unit": "%"}, {"measurement": "residual activity", "setting": "[19]; [29]", "value": 84, "unit": "%"}, {"measurement": "residual activity", "setting": "[20]; [29]", "value": 100, "unit": "%"}, {"measurement": "residual activity", "setting": "[21]; [29]", "value": 58, "unit": "%"}, {"measurement": "residual activity", "setting": "[22]; [29]", "value": 49, "unit": "%"}, {"measurement": "residual activity", "setting": "[23]; [29]", "value": 100, "unit": "%"}, {"measurement": "residual activity", "setting": "[24]; [29]", "value": 100, "unit": "%"}, {"measurement": "residual activity", "setting": "[25]; [29]", "value": 41, "unit": "%"}, {"measurement": "residual activity", "setting": "[26]; [29]", "value": 71, "unit": "%"}, {"measurement": "residual activity", "setting": "[27]; [29]", "value": 100, "unit": "%"}, {"measurement": "inhibition", "setting": "[28]", "value": 0.93, "unit": "%"}]}
{"smiles": "CN(c1ccnc(CNc2nc(Nc3ccc4c(c3)CC(=O)N4)ncc2C(F)(F)F)n1)S(C)(=O)=O", "note": "[PF-00911705]", "values": [{"measurement": "residual activity", "setting": "[1]; [30]", "value": 2.3, "unit": "%"}, {"measurement": "residual activity", "setting": "[2]; [30]", "value": 85, "unit": "%"}, {"measurement": "residual activity", "setting": "[3]; [30]", "value": 3.5, "unit": "%"}, {"measurement": "residual activity", "setting": "[4]; [30]", "value": 57, "unit": "%"}, {"measurement": "residual activity", "setting": "[5]; [30]", "value": 65, "unit": "%"}, {"measurement": "residual activity", "setting": "[6]; [30]", "value": 11, "unit": "%"}, {"measurement": "residual activity", "setting": "[7]; [30]", "value": 37, "unit": "%"}, {"measurement": "residual activity", "setting": "[8]; [30]", "value": 86, "unit": "%"}, {"measurement": "residual activity", "setting": "[9]; [30]", "value": 59, "unit": "%"}, {"measurement": "residual activity", "setting": "[10]; [30]", "value": 74, "unit": "%"}, {"measurement": "residual activity", "setting": "[11]; [30]", "value": 91, "unit": "%"}, {"measurement": "residual activity", "setting": "[12]; [30]", "value": 29, "unit": "%"}, {"measurement": "residual activity", "setting": "[13]; [30]", "value": 65, "unit": "%"}, {"measurement": "residual activity", "setting": "[14]; [30]", "value": 52, "unit": "%"}, {"measurement": "residual activity", "setting": "[15]; [30]", "value": 100, "unit": "%"}, {"measurement": "residual activity", "setting": "[16]; [30]", "value": 75, "unit": "%"}, {"measurement": "residual activity", "setting": "[17]; [30]", "value": 58, "unit": "%"}, {"measurement": "residual activity", "setting": "[18]; [30]", "value": 54, "unit": "%"}, {"measurement": "residual activity", "setting": "[19]; [30]", "value": 55, "unit": "%"}, {"measurement": "residual activity", "setting": "[20]; [30]", "value": 92, "unit": "%"}, {"measurement": "residual activity", "setting": "[21]; [30]", "value": 43, "unit": "%"}, {"measurement": "residual activity", "setting": "[22]; [30]", "value": 79, "unit": "%"}, {"measurement": "residual activity", "setting": "[23]; [30]", "value": 41, "unit": "%"}, {"measurement": "residual activity", "setting": "[24]; [30]", "value": 73, "unit": "%"}, {"measurement": "residual activity", "setting": "[25]; [30]", "value": 45, "unit": "%"}, {"measurement": "residual activity", "setting": "[26]; [30]", "value": 72, "unit": "%"}, {"measurement": "residual activity", "setting": "[27]; [30]", "value": 61, "unit": "%"}, {"measurement": "inhibition", "setting": "[28]", "value": 4.75, "unit": "%"}]}
